Values of other authors, collected in patent publication US20220241275A1, “TARGETED TREATMENT OF CANCERS WITH DYSREGULATED FIBROBLAST GROWTH FACTOR RECEPTOR SIGNALING” (G1 Therapeutics, Inc., priority 2019, published 2022).
Where two headings read alike, the source gives them in different places.

Key:
[1] = biological target: FGFR1 (Homo sapiens, UniProt P11362)
[2] = biological target: FGFR2 (Homo sapiens, UniProt P21802)
[3] = biological target: FGFR3 (Homo sapiens, UniProt P22607)
[4] = biological target: FGFR4 (Homo sapiens, UniProt P22455)
Chain of FGFR4 (P22455 22-802): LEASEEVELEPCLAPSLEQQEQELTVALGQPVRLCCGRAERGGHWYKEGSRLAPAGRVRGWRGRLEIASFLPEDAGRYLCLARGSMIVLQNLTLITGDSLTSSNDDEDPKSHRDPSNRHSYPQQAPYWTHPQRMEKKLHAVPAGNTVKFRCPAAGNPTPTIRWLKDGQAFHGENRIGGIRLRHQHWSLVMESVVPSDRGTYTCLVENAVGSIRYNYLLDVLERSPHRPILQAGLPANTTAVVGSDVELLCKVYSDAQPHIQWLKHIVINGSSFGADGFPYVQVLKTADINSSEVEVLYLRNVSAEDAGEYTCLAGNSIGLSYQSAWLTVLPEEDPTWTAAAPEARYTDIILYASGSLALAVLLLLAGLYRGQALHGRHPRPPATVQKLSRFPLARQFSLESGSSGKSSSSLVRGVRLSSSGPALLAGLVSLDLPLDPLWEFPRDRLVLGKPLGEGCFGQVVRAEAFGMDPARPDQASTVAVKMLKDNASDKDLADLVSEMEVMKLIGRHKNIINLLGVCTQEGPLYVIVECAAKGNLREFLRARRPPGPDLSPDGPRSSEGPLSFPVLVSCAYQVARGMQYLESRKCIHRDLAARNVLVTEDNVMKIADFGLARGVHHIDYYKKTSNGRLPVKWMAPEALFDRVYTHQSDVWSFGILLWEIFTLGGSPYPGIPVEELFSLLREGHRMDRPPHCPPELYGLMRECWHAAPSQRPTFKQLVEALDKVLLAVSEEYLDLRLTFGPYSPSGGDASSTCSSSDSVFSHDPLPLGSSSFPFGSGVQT

[5] = biological target: VEGFR2 (Homo sapiens, UniProt P35968); conditions: cell-free assays
Chain of VEGFR2 (P35968 20-1356, species assumed): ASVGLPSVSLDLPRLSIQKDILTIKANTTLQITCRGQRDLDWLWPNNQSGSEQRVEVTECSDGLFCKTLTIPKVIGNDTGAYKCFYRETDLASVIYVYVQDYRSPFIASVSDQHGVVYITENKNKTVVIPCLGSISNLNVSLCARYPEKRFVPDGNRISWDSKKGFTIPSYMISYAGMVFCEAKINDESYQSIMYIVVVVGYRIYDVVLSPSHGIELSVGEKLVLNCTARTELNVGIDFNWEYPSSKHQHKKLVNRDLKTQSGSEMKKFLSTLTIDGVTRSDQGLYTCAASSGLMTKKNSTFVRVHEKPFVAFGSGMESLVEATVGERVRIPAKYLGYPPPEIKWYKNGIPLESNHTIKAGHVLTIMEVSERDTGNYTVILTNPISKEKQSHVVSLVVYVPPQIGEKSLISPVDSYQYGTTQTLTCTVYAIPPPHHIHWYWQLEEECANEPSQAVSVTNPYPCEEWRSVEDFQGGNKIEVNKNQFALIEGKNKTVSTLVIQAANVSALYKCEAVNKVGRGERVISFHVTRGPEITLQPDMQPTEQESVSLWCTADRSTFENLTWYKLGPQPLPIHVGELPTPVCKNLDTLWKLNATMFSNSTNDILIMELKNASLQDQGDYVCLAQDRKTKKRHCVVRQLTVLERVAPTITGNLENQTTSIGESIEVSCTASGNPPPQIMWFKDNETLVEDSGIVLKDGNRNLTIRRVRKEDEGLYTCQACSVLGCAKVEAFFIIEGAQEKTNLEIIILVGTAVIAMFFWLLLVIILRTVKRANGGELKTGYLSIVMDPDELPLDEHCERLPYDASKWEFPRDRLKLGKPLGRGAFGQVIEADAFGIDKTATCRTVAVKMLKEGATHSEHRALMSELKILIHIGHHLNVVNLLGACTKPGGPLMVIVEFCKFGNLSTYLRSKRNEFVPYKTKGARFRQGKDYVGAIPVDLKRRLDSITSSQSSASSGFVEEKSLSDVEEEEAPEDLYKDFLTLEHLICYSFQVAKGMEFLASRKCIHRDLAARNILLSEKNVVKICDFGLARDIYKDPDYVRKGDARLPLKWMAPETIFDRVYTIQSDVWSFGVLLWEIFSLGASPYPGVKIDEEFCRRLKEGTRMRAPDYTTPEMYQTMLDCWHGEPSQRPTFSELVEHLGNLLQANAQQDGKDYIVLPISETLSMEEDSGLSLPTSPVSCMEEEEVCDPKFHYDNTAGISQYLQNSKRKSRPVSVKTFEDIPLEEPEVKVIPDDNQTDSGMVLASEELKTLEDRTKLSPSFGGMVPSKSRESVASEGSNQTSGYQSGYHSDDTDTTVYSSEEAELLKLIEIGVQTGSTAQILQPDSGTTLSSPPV

[6] = system: FGFR1-amplified squamous NSCLC and FGFR3-mutant urothelial cancer; conditions: doses >=100 mg, phase I dose escalation trial

Chain of FGFR3 (P22607 23-806): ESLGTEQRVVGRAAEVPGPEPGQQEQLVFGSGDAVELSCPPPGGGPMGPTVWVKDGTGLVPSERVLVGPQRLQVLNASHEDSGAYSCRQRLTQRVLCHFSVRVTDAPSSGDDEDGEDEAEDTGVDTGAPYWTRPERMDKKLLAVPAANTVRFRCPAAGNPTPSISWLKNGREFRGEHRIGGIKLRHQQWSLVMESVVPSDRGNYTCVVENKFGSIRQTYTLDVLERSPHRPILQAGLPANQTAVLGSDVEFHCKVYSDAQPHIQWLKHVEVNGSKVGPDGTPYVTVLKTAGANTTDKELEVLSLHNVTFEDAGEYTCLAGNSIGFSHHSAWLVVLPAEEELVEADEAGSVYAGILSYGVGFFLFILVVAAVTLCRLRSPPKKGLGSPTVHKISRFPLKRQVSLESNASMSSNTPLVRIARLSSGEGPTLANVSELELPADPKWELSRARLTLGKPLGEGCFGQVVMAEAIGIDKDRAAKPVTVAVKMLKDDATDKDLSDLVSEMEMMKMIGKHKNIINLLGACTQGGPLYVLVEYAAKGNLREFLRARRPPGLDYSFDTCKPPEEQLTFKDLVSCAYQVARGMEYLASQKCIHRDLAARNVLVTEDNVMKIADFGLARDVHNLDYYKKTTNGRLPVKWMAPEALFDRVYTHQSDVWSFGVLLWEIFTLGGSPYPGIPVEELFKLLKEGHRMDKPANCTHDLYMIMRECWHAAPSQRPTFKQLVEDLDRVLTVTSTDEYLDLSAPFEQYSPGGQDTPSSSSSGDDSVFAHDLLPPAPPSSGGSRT
Chain of FGFR2 (P21802 22-821): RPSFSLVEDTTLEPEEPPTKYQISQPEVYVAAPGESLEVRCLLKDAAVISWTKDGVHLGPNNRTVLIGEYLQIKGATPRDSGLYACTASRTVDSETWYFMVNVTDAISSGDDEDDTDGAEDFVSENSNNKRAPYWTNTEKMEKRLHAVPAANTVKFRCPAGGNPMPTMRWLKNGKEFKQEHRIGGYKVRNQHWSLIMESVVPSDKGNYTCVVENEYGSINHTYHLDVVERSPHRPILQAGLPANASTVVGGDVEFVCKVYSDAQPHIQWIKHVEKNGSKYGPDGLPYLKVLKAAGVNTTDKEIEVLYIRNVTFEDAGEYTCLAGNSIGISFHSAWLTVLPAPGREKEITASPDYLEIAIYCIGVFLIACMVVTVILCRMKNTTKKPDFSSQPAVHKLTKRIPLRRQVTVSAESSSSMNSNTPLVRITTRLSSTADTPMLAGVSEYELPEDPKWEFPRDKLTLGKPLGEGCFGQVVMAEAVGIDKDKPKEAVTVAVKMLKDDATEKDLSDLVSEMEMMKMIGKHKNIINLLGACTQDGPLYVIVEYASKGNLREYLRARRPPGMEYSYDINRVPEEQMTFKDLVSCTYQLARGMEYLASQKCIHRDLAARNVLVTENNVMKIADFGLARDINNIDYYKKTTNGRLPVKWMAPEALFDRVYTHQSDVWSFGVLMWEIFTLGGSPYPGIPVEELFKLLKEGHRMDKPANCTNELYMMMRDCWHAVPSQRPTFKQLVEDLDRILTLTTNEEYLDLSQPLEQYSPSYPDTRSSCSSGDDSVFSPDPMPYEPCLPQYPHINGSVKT
Chain of FGFR1 (P11362 22-822): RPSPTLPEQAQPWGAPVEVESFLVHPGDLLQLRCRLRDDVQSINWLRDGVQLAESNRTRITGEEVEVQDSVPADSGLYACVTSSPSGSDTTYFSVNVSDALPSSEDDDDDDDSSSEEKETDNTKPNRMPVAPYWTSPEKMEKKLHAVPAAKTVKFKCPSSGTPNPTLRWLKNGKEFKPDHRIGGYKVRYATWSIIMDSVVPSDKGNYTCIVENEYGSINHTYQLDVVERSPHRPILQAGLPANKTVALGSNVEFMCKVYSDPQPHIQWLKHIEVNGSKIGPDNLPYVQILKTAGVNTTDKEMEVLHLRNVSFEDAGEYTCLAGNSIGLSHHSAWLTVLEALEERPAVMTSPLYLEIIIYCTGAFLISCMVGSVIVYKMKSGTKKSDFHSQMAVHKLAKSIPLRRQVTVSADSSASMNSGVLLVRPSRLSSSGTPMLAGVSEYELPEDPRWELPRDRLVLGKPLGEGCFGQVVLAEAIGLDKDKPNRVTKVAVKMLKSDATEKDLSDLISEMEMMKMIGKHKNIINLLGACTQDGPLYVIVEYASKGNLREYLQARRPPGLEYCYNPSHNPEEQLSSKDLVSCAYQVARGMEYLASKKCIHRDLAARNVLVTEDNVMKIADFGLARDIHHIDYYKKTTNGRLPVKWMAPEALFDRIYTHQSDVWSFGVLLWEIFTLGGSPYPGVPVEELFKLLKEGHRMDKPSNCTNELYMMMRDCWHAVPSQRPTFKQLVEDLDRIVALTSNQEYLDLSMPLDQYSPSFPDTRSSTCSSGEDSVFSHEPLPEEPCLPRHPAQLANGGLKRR

Question: Which results are given for `C=CC(=O)Nc1ccc(CN2C(=O)N(c3cc(OC)cc(OC)c3)Cc3cnc(Nc4ccc(N5CCN(C)CC5)cc4)nc32)cc1` [FIIN-2]?
Answer: IC50 [1]: 3.09 nM; IC50 [2]: 4.3 nM; IC50 [3]: 27 nM; IC50 ([4]; read-out: IC50 for FGFR4): 45.3 nM

Question: For `CCN(CC)CCCCNc1ncc2cc(-c3cc(OC)cc(OC)c3)c(NC(=O)NC(C)(C)C)nc2n1` [PD173074], which IC50 [5] is on record?
Answer: 100 to 200 nM

Question: Which IC50 ([4]; read-out: IC50, FGFR4) does the source give for `CNC(=O)c1cccc2cc(Oc3ccnc(NC(=O)c4ccc(N5CCN(CCO)CC5)cc4)c3)ccc12` [SOMCL-085] here?
Answer: 320 nM

Question: With `CCN1CCN(c2ccc(Nc3cc(N(C)C(=O)Nc4c(Cl)c(OC)cc(OC)c4Cl)ncn3)cc2)CC1` [infigratinib] as the compound, how does the confirmed partial responses [6] read?
Answer: six
